# Non-standard residues stand in square brackets, D forms with d. Residues, ends and D or L forms follow the SMILES beside them. *: point of attachment. Dolaproine = CO[C@@H]([C@@H]1CCCN1)[C@@H](C)C(=O)O; Dil = CC[C@H](C)[C@H](NC)[C@@H](CC(=O)O)OC; X1 = C[C@@H](N*)[C@@H](O)c1ccccc1; NMeV = CN[C@H](C(=O)O)C(C)C
# What was measured:
# [1] = test system: HER2-negative MCF7 and T47D cells; experiment: Cell viability (CellTiter-Glo), HER2-negative cells; format: cell-based; conditions: 96 h, HER2-negative cell lines, FIG. 2
# Protocol: (§1) HER2-positive SKBR3 and BT474 cells were obtained from the American Type Culture Collection (ATCC) and HER2-negative MCF7 and T47D cells were obtained from the European Collection of Authenticated Cell Cultures (ECACC) and ATCC, respectively. SKBR3 cells were maintained in high glucose McCoy's 5A medium, supplemented with 10% heat-inactivated foetal-bovine serum (FBS), 50 U/mL penicillin and 50 μg/mL streptomycin. MCF7 cells were maintained in Dulbecco's Modified Eagle Medium (DMEM) supplemented with 10% heat-inactivated fetal-bovine serum (FBS), 2 mM L-glutamine, 50 U/mL penicillin and 50 μg/mL streptomycin. BT474 and T47D cell lines were maintained in RPM11640 medium supplemented with 10% heat-inactivated fetal-bovine serum (FBS), 2 mM L-glutamine, 50 U/mL penicillin and 50 μg/mL streptomycin. All cell lines were incubated at 37° C. with 5% CO2.
# (§2) Cells were seeded in 96-well plates for 24 h at 37° C. with 5% CO2. SKBR3 cells were seeded at 15,000 cells/well, BT474 cells were seeded at 20,000 cells/well, MCF7 cells were seeded at 7,500 cells/well and T47D cells were seeded at 10,000 cells/well. […] Cell viability was measured using CellTiter-Glo viability assay (Promega) according to the manufacturer's instructions. Cell viability was plotted as a percentage of untreated cells.
# [2] = test system: HER2-positive SKBR3 and BT474 cells; experiment: Cell viability (CellTiter-Glo), HER2-positive cells; format: cell-based; conditions: 96 h, HER2-positive cell lines, FIG. 2
# Protocol: as §1, §2
# [3] = Stability of model cysteine conjugates incubated with excess reduced L-glutathione (GSH), tracked via 1H NMR; format: physicochemical; conditions: 3 equivalents GSH, pH 7.4 buffer, 37° C., after two weeks
# Protocol: The stability of conjugate 3 under physiological conditions was investigated by incubation with excess (3 equivalents) reduced L-glutathione (GSH) in pH 7.4 buffer (40% CD-3OD/NaPi—50 mM) at 37° C. The stability was tracked via ^1H NMR and almost no degradation (<5%) was observed after two weeks.
# trastuzumab Fab = experiment: Trastuzumab Fab conjugation kinetic experiment (LC-MS); conditions: 10 and 20 equivalents of linker, after 15 minutes, 37° C.
# Protocol: The mixtures were vortexed and incubated at 37° C. for 1 h. A solution of 8 (10 mM in DMSO) was added to each solution (final concentration equal to 10 and 20 equivalents) and the reaction mixture incubated at 37° C. At t=0, 5, 10, 15, 20, 30, 40 and 60 min, 0.5 μL was removed from each reaction, diluted with MilliQ water (9 μL) and quenched with 100 eq. of cysteine (5 mM in DMSO). LC-MS analysis was then used to quantify conversion.
compound,measurement,setting,value
CC[C@H](C)[C@@H]([C@@H](CC(=O)N1CCC[C@H]1[C@H](OC)[C@@H](C)C(=O)N[C@H](C)[C@@H](O)c1ccccc1)OC)N(C)C(=O)[C@@H](NC(=O)[C@@H](NC)C(C)C)C(C)C [MMAE] (H-[NMeV]V[Dil][Dolaproine]-X1),cytotoxicity (cell viability),[1],high levels of cytotoxicity
same,cytotoxicity (cell viability),[2],high levels of cytotoxicity
COC(=O)[C@H](CSCCc1ccnc(N)n1)NC(=O)OC(C)(C)C [compound 3],degradation,[3],< 5%
"COC(=O)[C@H](CSC1CC(=O)N(Cc2ccccc2)C1=O)NC(=O)OC(C)(C)C (stereo partly drawn) [compound 6, methyl S-(1-benzyl-2,5-dioxopyrrolidin-3-yl)-N-(tert-butoxycarbonyl)-L-cysteinate]",conversion to the glutathione conjugate,[3],> 50%
"C#CCCCCNc1nc(C=C)cc(C=C)n1 [compound 8, N-(hex-5-yn-1-yl)-4,6-divinylpyrimidin-2-amine]",re-bridging of the Fab chains,trastuzumab Fab,> 90%
